The record followed here is patent US20030013660A1, “Dioxolane analogs for improved inter-cellular delivery” (Shire BioChem Inc., priority 2000, published 2003).

One assay relates to CEM cells. Kind of assay: CellTiter 96 cell proliferation assay (chemosensitivity), 48 h. It is filed as cell-based. The protocol:
(§1) The chemosensitivity of suspension cells lines (e.g., CEM or CEM-derivatives) is assessed using the CellTiter 96 ? proliferation assay. […] Adherent cell lines (e.g., DU145 or DU145^R) are seeded (^˜10^5 cells) in triplicate dishes, 24 h before drug exposure. Growth inhibition is determined by trypsinization and counting cells electronically.

The subject of a further assay is CEM/ARAC8C cells. The description is as above. The assay is classed as cell-based. On the procedure: as §1
The test system of a further assay is CEM/dCK cells. The assay is described as above. The assay is classed as cell-based. Conditions: read-out: EC50 (50% of the dose response curve), 48 h exposure. The protocol:
as §1

The test system of assay [1] is H-460. The assay can be described thus: MTT assay at 72 hr (24 hr drug exposure, wash, 48 hr). It is filed as cell-based. The protocol:
(§2) Exposition of 24hr to drug, washed, and incubated for another 48hr (total of 72hr assay)
(Tetrazolium assays rely on reduction of a dye to a coloured formazan, in cell work by metabolically active cells.)

Assay [2] concerns MCF-7. The assay is described as above. Conditions: Homo sapiens, MCF7, read-out: IC50 MCF-7 24 h, Average, MTT at 72 hr, Average of the experiments. It is filed as cell-based. The protocol:
as §2

The test system of assay [3] is SF-268. The assay is described as above. It is filed as cell-based. Conditions: Homo sapiens, SF-268, read-out: IC50 SF-268 24 h, Average, MTT at 72 hr, Average of the experiments. The protocol: as §2
In assay [4] the test system is CCRF-CEM. The assay can be described thus: MTT or WST-1 assay at 72 hr (24 hr drug exposure, wash, 48 hr). It is filed as cell-based. Conditions: Homo sapiens, CCRF-CEM, read-out: IC50 CCRF-CEM 24 h, Average, MMT or WST-1 at 72 hr, Average of the experiments. On the procedure: as §2
The subject of assay [5] is CEM/dCK-. The assay is described as above. The assay is classed as cell-based. On the procedure: as §2
For assay [6], the system named is H-460. The assay can be described thus: 3H-TdR (3H-thymidine) incorporation assay at 72 hr. The assay is classed as cell-based, Human.
Assay [7] deals with MCF-7. The assay can be described thus: 3H-TdR (3H-thymidine) incorporation assay at 72 hr. The assay is classed as cell-based, Human.
Assay [8] concerns SF-268. The assay can be described thus: 3H-TdR (3H-thymidine) incorporation assay at 72 hr. The assay is classed as cell-based, Human.
Assay [9] has as its system CCRF-CEM. The assay can be described thus: 3H-TdR (3H-thymidine) incorporation assay at 72 hr. The assay is classed as cell-based. The protocol: (§3) Table of IC50 Values (μM) for Controls
(§4) Exposition of 24 hr to drug, wash, incubated for another 48 hr (total of 72 hr assay)
(§5) (3H-Thymidine Incorporation Assay)

In assay [10] the test system is CEM/dCK-. The assay can be described thus: 3H-TdR (3H-thymidine) incorporation assay at 72 hr. It is filed as cell-based. On the procedure:
as §3, §4, §5

“And” between values parts separate entries of the source, which are not always exact repeats. Equal values may be shown once.

Take `Nc1ccn([C@@H]2O[C@H](CO)[C@@H](O)C2(F)F)c(=O)n1` [Gemcitabine, gemcitabine, reference compound]: the EC50 (in general, the concentration giving half of the maximal effect) in the assay with CEM cells (Homo sapiens, CCRF-CEM, read-out: EC50 (50% of the dose response curve), CEM cells, 48 h exposure) is 20 nM; with CEM/ARAC8C cells (read-out: EC50 (50% of the dose response curve), CEM/ARAC8C cells, 48 h exposure), 8630 nM; with CEM/dCK cells, above 50000 nM. Further, the “effect of the es transport inhibitor NBMPR on resistance of CEM cells” value in the assay on CEM cells (presence of NBMPR) is on record as “increased resistance”. Besides, in the assay on CEM/ARAC8C cells (CEM/ARAC8C compared to CEM), the “level of resistance of nucleoside-transport deficient CEM/ARAC8C cells” value was determined as 431 fold. For the same molecule, the IC50 in the assay on H-460 [1] (Homo sapiens, NCI-H460, read-out: IC50 H-460 24 h, Average, MTT at 72 hr, Average of the experiments) was 72 ± 100 nM; in the assay on H-460 [1] (read-out: IC50 H-460 24 h, MTT at 72 hr, 24 h exposure, single experiment) it was 12 nM and 86 nM; with MCF-7 [2] it was 78 nM; in the assay on SF-268 [3], 180 ± 250 nM; in the assay with CCRF-CEM [4], 20 ± 23 nM; in the assay with CEM/dCK- [5] (read-out: IC50 CEM/dCK- 24 h, Average, MMT or WST-1 at 72 hr, Average of the experiments) it was 57000 ± 39000 nM. For the same molecule, the IC50 in the assay with H-460 [6] (Homo sapiens, NCI-H460, 24 h, read-out: IC50 H-460 24 h, Average, Average ± spread of the repeat determinations, 24 h exposure) was 11 nM; with H-460 [6] (read-out: IC50 H-460 24 h, 24 h drug exposure, wash, another 48 hr, 3H-TdR incorporation at 72 hr) it was 9.1 nM and 10 nM and 8.3 nM; in the assay on MCF-7 [7] (Homo sapiens, MCF7, 24 h, read-out: IC50 MCF-7 24 h, Average, Average ± spread of the repeat determinations, 24 h exposure), 6.8 nM; in the assay on MCF-7 [7] (read-out: IC50 MCF-7 24 h, 24 h drug exposure, wash, another 48 hr, 3H-TdR incorporation at 72 hr), 8.7 nM and 10 nM; in the assay on SF-268 [8] (Homo sapiens, SF-268, 24 h, read-out: IC50 SF-268 24 h, Average, Average ± spread of the repeat determinations, 24 h exposure) it was 8.6 nM; with SF-268 [8] (read-out: IC50 SF-268 24 h, 24 h drug exposure, wash, another 48 hr, 3H-TdR incorporation at 72 hr), 4.5 nM and 10 nM and 9.4 nM. In addition, the IC50 with CCRF-CEM [9] (Homo sapiens, CCRF-CEM, 24 h, read-out: IC50 CCRF-CEM 24 h, Average, Average ± spread of the repeat determinations, 24 h exposure) was 8.4 nM; in the assay on CCRF-CEM [9] (read-out: IC50 CCRF-CEM 24 h, 24 h drug exposure, wash, another 48 hr, 3H-TdR incorporation at 72 hr) it was 10 nM and 9.2 nM; with CEM/dCK- [10] (24 h, read-out: IC50 CEM/dCK- 24 h, Average, Average ± spread of the repeat determinations, 24 h exposure), 66000 ± 24000 nM; in the assay on CEM/dCK- [10] (read-out: IC50 CEM/dCK- 24 h, 24 h drug exposure, wash, another 48 hr, deoxycytidine kinase-deficient CCRF-CEM), 51000 nM and 41000 nM and 30000 nM. Besides, the “Resistance Factor*, Average” value in the assay on CEM/dCK- [5] (CEM/dCK- versus CCRF-CEM, Average of the experiments) is given as 3987 ± 3871. Further, the “Factor* (Resistance Factor), Average” value in the assay on CEM/dCK- [10] (Average ± spread of the ratios dCK- on wild-type CCRF-CEM) came to 8618 ± 3614.
